Data reported in the NIST ThermoML archive (doi:10.1021/acs.jced.9b00424).

Assay: xn = mol fraction of the nth substance listed
Details: for viscosity: 100 kPa, Concentric cylinders viscometry; for viscosity / mass density: Liquid; for mass density: 101 kPa, Vibrating tube method; for surface tension liquid-gas: Pendant drop shape

CCCCCCCC(=O)O [octanoic acid] + CC(C)[C@@H]1CC[C@@H](C)C[C@H]1O
Details | mass density [kg/m3] | surface tension liquid-gas [mN/m] | viscosity [mPa·s]
323.15 K, x2 = 0 | 886.2 | – | –
323.15 K, x2 = 0.25 | 884.6 | – | –
323.15 K, x2 = 0.333 | 884 | – | –
323.15 K, x2 = 0.5 | 882.6 | – | 4.79
323.15 K, x2 = 0.667 | 880.9 | – | 5.78
323.15 K, x2 = 0.75 | 879.5 | – | 6.12
323.52 K, x2 = 0.667 | – | 19.52 | –
323.58 K, x2 = 0.25 | – | 20.1 | –
323.61 K, x2 = 0.75 | – | 20.72 | –
327.39 K, x2 = 0 | – | 24.46 | –
328.11 K, x2 = 0.75 | – | 20.22 | –
328.15 K, x2 = 0 | 880.9 | – | 2.609
328.15 K, x2 = 0.25 | 879.5 | – | 3.25
328.15 K, x2 = 0.333 | 878.9 | – | 3.51
328.15 K, x2 = 0.5 | 877.6 | – | 4.11
328.15 K, x2 = 0.667 | 875.9 | – | 4.83
328.15 K, x2 = 0.75 | 874.4 | – | 5.05
328.35 K, x2 = 0.5 | – | 20.44 | –
328.41 K, x2 = 0.333 | – | 22.47 | –
328.48 K, x2 = 0.667 | – | 19.19 | –
328.93 K, x2 = 0.25 | – | 19.73 | –
331.72 K, x2 = 0 | – | 23.43 | –
332.7 K, x2 = 0.75 | – | 19.65 | –
332.78 K, x2 = 0.333 | – | 21.79 | –
332.97 K, x2 = 0.5 | – | 19.47 | –
333.15 K, x2 = 0 | 876 | – | 2.372
333.15 K, x2 = 0.25 | 874.7 | – | 2.9
333.15 K, x2 = 0.333 | 874.1 | – | 3.1
333.15 K, x2 = 0.5 | 872.9 | – | 3.56
333.15 K, x2 = 0.667 | 871.2 | – | 4.09
333.15 K, x2 = 0.75 | 869.4 | – | 4.22
333.27 K, x2 = 0.667 | – | 18.98 | –
333.38 K, x2 = 0.25 | – | 19.41 | –
338.15 K, x2 = 0 | 871.4 | – | 2.166
338.15 K, x2 = 0.25 | 870.1 | – | 2.595
338.15 K, x2 = 0.333 | 869.6 | – | 2.753
338.15 K, x2 = 0.5 | 868.4 | – | 3.11
338.15 K, x2 = 0.667 | 866.7 | – | 3.49
338.15 K, x2 = 0.75 | 864.6 | – | 3.56
343.15 K, x2 = 0 | 867.1 | – | 1.985
343.15 K, x2 = 0.25 | 865.9 | – | 2.336
343.15 K, x2 = 0.333 | 865.4 | – | 2.461
343.15 K, x2 = 0.5 | 864.3 | – | 2.732
343.15 K, x2 = 0.667 | 862.6 | – | 3.02
343.15 K, x2 = 0.75 | 860 | – | 3.04
348.15 K, x2 = 0 | 863 | – | 1.826
348.15 K, x2 = 0.25 | 862 | – | 2.113
348.15 K, x2 = 0.333 | 861.5 | – | 2.212
348.15 K, x2 = 0.5 | 860.4 | – | 2.419
348.15 K, x2 = 0.667 | 858.7 | – | 2.625
348.15 K, x2 = 0.75 | 855.7 | – | 2.635
353.15 K, x2 = 0 | 859.3 | – | 1.683
353.15 K, x2 = 0.25 | 858.3 | – | 1.921
353.15 K, x2 = 0.333 | 857.9 | – | 1.996
353.15 K, x2 = 0.5 | 856.7 | – | 2.156
353.15 K, x2 = 0.667 | 855.1 | – | 2.301
353.15 K, x2 = 0.75 | 851.6 | – | 2.324
